The record followed here is ChEMBL document CHEMBL1140804, “Design, synthesis and evaluation of trifluoromethane sulfonamide derivatives as new potent and selective peroxisome proliferator-activated receptor alpha agonists” (Bioorg Med Chem Lett, 2008).

Test [1] has as its target T1, Peroxisome proliferator-activated receptor alpha (Homo sapiens, UniProt Q07869).
T1 sequence (Q07869 whole entry): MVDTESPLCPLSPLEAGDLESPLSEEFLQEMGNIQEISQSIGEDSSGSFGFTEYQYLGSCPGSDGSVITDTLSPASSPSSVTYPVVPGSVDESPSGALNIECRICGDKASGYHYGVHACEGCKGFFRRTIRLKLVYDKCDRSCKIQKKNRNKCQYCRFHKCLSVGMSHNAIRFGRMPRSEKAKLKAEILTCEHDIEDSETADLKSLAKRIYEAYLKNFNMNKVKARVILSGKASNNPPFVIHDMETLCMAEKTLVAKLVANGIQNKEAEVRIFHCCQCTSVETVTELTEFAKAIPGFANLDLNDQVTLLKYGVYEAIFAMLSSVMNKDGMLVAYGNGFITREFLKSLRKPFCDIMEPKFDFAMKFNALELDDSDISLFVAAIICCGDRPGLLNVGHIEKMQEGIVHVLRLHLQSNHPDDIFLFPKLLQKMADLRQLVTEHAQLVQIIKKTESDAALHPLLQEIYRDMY
Description: Agonist activity at human PPARalpha assessed as receptor activation by cell based assay

Test [2] has as its target T2, Peroxisome proliferator-activated receptor alpha (Mus musculus, UniProt P23204).
T2 sequence (P23204 whole entry): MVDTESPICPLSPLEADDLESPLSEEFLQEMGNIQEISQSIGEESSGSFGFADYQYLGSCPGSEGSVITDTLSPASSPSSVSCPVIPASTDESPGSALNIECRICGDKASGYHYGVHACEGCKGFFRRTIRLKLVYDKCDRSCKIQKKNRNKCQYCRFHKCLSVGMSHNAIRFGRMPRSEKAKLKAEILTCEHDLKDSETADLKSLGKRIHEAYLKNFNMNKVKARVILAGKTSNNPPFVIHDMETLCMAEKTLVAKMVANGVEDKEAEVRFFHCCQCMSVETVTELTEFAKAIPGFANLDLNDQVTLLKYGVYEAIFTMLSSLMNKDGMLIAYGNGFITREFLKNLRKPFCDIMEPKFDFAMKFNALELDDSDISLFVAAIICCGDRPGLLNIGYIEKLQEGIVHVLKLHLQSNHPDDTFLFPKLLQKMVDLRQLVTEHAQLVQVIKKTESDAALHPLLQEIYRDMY
Description: (§1) Agonist activity at mouse PPARalpha assessed as receptor activation by cell based assay

In test [3] the target is T3, Peroxisome proliferator-activated receptor delta (Homo sapiens, UniProt Q03181).
T3 sequence (Q03181 whole entry): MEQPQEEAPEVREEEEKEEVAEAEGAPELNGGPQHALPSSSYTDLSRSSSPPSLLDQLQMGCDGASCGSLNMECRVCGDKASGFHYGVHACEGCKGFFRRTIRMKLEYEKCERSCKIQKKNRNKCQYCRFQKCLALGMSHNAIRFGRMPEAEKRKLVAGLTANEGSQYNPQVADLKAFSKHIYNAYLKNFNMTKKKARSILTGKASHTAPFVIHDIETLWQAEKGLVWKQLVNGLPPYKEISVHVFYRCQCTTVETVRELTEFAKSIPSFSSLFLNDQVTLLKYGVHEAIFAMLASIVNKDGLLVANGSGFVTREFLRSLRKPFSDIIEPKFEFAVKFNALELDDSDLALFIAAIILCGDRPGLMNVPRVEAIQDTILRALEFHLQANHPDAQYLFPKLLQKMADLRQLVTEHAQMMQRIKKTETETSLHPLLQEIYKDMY
Description: Agonist activity at human PPARdelta assessed as receptor activation by cell based assay

The target of test [4] is T4, Peroxisome proliferator-activated receptor delta (Mus musculus, UniProt P35396).
T4 sequence (P35396 whole entry): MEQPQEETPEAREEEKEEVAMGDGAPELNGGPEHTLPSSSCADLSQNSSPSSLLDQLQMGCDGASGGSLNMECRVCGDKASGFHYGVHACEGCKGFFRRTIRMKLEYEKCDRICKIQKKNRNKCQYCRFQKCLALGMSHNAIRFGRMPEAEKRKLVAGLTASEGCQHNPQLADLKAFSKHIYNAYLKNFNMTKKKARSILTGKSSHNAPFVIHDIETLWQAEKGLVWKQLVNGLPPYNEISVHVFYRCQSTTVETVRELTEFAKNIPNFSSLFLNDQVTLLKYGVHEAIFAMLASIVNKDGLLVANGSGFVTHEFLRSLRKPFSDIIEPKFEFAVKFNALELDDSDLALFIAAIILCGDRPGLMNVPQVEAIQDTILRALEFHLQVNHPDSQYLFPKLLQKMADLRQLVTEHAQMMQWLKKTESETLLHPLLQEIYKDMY
Description: Agonist activity at mouse PPARdelta assessed as receptor activation by cell based assay

The target in test [5] is T5, Peroxisome proliferator-activated receptor gamma (Homo sapiens, UniProt P37231).
T5 sequence (P37231 whole entry): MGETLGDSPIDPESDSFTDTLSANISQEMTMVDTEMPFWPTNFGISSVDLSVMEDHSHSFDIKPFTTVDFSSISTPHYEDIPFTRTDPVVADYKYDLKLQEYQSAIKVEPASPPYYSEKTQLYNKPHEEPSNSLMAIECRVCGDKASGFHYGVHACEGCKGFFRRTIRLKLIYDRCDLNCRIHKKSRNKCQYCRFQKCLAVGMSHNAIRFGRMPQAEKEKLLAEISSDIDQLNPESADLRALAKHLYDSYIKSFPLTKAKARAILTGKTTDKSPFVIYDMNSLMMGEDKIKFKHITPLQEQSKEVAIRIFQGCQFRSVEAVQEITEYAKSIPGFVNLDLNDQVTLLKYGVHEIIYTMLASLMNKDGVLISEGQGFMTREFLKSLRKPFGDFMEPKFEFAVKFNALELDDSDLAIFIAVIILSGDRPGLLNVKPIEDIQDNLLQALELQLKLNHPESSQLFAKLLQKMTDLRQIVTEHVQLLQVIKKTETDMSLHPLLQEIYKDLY
Description: Agonist activity at human PPARgamma assessed as receptor activation by cell based assay

Test [6] addresses T6, Peroxisome proliferator-activated receptor gamma (Mus musculus, UniProt P37238).
T6 sequence (P37238 whole entry): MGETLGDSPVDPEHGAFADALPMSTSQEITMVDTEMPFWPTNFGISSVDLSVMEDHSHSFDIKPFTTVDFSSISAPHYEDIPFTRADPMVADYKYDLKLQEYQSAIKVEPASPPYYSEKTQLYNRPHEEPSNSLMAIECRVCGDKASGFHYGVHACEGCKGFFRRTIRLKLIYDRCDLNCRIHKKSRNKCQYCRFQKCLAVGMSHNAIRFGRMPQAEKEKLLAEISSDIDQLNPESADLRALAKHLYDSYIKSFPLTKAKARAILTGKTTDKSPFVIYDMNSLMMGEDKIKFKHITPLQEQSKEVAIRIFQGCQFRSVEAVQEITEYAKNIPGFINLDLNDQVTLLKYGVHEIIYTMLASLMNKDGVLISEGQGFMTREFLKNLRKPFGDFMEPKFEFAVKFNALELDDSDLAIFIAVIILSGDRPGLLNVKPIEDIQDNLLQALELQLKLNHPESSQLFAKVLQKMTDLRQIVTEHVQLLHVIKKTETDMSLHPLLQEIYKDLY
Description: Agonist activity at mouse PPARgamma assessed as receptor activation by cell based assay

The target in test [7] is T7, Peroxisome proliferator-activated receptor alpha (Mus musculus) (UniProt P23204).
T7 sequence (whole entry): T2 sequence (P23204 whole entry)
Description: as §1

As usually defined, the EC50 is the concentration giving half of the maximal effect. The low end stands for a more potent agent, the high end for a less potent agent. For `CCCCS(=O)(=O)Nc1ccc(CNC(=O)c2sc(-c3ccc(C(F)(F)F)cc3)nc2C)cc1`, the EC50 in test [1] was 0.32 µM; in test [2], more than 10 µM; in test [3], more than 10 µM; in test [4] it was more than 10 µM; in test [5], 5.5 µM; in test [6] it was 6.7 µM.
As to `Cc1nc(-c2ccc(C(F)(F)F)cc2)sc1C(=O)NCc1ccc(NC(=O)C(F)(F)F)cc1`, the EC50 is 0.45 µM in test [1]; more than 10 µM in test [2]; more than 10 µM in test [3]; more than 10 µM in test [4]; more than 10 µM in test [5]; more than 10 µM in test [6].
In the case of `Cc1nc(-c2ccc(C(F)(F)F)cc2)sc1C(=O)NCc1ccc(NS(=O)(=O)C(C)C)cc1`, the EC50 is 0.05 µM in test [1]; more than 10 µM in test [2]; more than 10 µM in test [3]; more than 10 µM in test [4]; more than 10 µM in test [5]; more than 10 µM in test [6].
With `Cc1csc(-c2ccc(C(=O)NCc3ccc(OC(C)(C)C(=O)O)cc3)cc2)n1`, the results for the EC50 in test [1] and in test [2] were 5 µM and more than 25 µM, respectively.
Consider `COCc1nc(-c2ccc(C(=O)NCc3ccc(NS(=O)(=O)C(F)(F)F)cc3)cc2)no1`, for which the EC50 in test [1] was 0.36 µM; in test [2], 0.7 µM. Also, the Activity in test [7] was determined as 116%.
With `Cc1nc(-c2ccc(C(F)(F)F)cc2)sc1C(=O)NCc1ccc(OC(C)(C)C(=O)NS(=O)(=O)C(F)(F)F)cc1`, the EC50 in test [1], in test [2], in test [3], in test [4], in test [5] and in test [6] was more than 10 µM throughout.
Turning to `Cc1ccc(S(=O)(=O)Nc2ccc(CNC(=O)c3sc(-c4ccc(C(F)(F)F)cc4)nc3C)cc2)cc1`, the EC50 in test [1] is 1 µM; in test [2] it was more than 10 µM; in test [3] it was more than 10 µM; in test [4], more than 10 µM; in test [5] it was more than 10 µM; in test [6], more than 10 µM.
For the molecule `COc1ccc2sc(C(=O)NCc3ccc(OC(C)(C)C(=O)O)cc3)cc2c1`, the EC50 in test [1] was 6 µM; in test [2] it was more than 25 µM.
Take `Cc1nc(-c2ccc(C(F)(F)F)cc2)sc1C(=O)NCc1ccc(OC(C)(C)C(=O)O)cc1` [GW590735]: the EC50 in test [2] is 0.02 µM; in test [4], 1.7 µM; in test [5], 9.7 µM; in test [6] it was 9.7 µM. For the same molecule, in test [7], the Activity came out at 103%.
Regarding `CC(C)(Oc1ccc(CNC(=O)c2ccc(-c3ccc(Cl)cc3)cc2)cc1)C(=O)O`, the EC50 in test [1] came to 0.07 µM; in test [2], 1 µM. In test [7], this molecule yielded an Activity of 130%.
For `Cc1csc(-c2ccc(C(=O)NCc3ccc(NS(=O)(=O)C(F)(F)F)cc3)cc2)n1`, in that order: 0.06 µM, 0.08 µM and 96%.
Turning to `Cc1nc(-c2ccc(C(F)(F)F)cc2)sc1C(=O)NCc1ccc(NS(=O)(=O)C(F)(F)F)cc1`, the EC50 in test [1] came to 0.0003 µM; in test [2], 0.002 µM; in test [3], 0.4 µM; in test [4], 0.3 µM; in test [5] it was 0.5 µM; in test [6], 0.6 µM. For the same molecule, in test [7], the Activity is 98%.
For the molecule `CC(C)(Oc1ccc(CNC(=O)Cc2ccc(-c3ccc(Cl)cc3)cc2)cc1)C(=O)O`, the figures for the EC50 in test [1] and in test [2] were 2.8 µM and more than 25 µM, respectively.
`O=C(Cc1ccc(-c2ccc(Cl)cc2)cc1)NCc1ccc(NS(=O)(=O)C(F)(F)F)cc1`: the results for the EC50 in test [1] and in test [2] were 0.08 µM and 0.34 µM, respectively. In test [7], this molecule registered an Activity of 0.34%.
Take `Cc1nc(-c2ccc(C(F)(F)F)cc2)sc1C(=O)NCc1ccc(CNS(=O)(=O)C(F)(F)F)cc1`: the EC50 in test [1] is 0.08 µM; in test [2], more than 10 µM; in test [3], more than 10 µM; in test [4], more than 10 µM; in test [5], more than 10 µM; in test [6] it was more than 10 µM.
In the case of `COCc1nc(-c2ccc(C(=O)NCc3ccc(OC(C)(C)C(=O)O)cc3)cc2)no1`, the concentration giving a half-maximal response (EC50) is 3 µM in test [1] and more than 25 µM in test [2].
For the molecule `N#Cc1ccc(-c2ccc(C(=O)NCc3ccc(NS(=O)(=O)C(F)(F)F)cc3)cc2)cc1`, the results for the EC50 in test [1] and in test [2] were 0.02 µM and 0.2 µM, respectively. Further, in test [7], the Activity is 152%.
As for `Cc1nc(-c2ccc(C(F)(F)F)cc2)sc1C(=O)NCc1ccc(-c2c(O)c(=O)c2=O)cc1`, the EC50 in test [1], in test [2], in test [3], in test [4], in test [5] and in test [6] was more than 10 µM each time.
For `COc1ccc2sc(C(=O)NCc3ccc(NS(=O)(=O)C(F)(F)F)cc3)cc2c1`, the figures for the EC50 in test [1] and in test [2] were 0.08 µM and 0.13 µM, respectively. Moreover, the Activity in test [7] was 132%.
For the molecule `CC(C)(Oc1ccc(CNC(=O)c2ccc(-c3ccc(C#N)cc3)cc2)cc1)C(=O)O`, the results for the EC50 in test [1] and in test [2] were 1 µM and more than 25 µM, respectively.
For `Cc1nc(-c2ccc(C(F)(F)F)cc2)sc1C(=O)NCc1ccc(OCc2nn[nH]n2)cc1`, the EC50 in test [1], in test [2], in test [3], in test [4], in test [5] and in test [6] was more than 10 µM each time.
